Data set [1] is described as follows: inhibitors of clade B AD8 Env fusion, dose response, cell-based, cherry-pick (AID 652062).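 Note: luciferase signal from cell-cell fusion driven by HIV-1 clade B AD8 Env; potency is for inhibitors of fusion seen as a drop in luminescence.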 Type of data set: functional.
Data set [2] in a line: off-target signal loss in HeLa-CEM21 co-culture – HeLa F-luc CTL cells, cherry-picked, counter-screen for HIV-1 Env fusion inhibitor project, dose response (AID 652040).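 Note: potency for signal decrease marking cytotoxic or nonspecific inhibition.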 Type of data set: functional, cell-based. Background: The purpose of a counterscreen is to sort out artefacts and off-target activity.
The nature of data set [3]: HepG2 cell cytotoxicity, dose response, cytotoxicity control for Shn3 inhibitor project, CellTiter-Glo, cherry-picked (AID 624134). Format: functional, cell-based. On the technique in general: Cellular ATP, detected with luciferase, serves as a proxy for viable cell number.
Data set [4] can be described thus: cells. Type of data set: functional, cell-based. To be noted: HEK-CNG.
Data set [5] can be described thus: control 3'UTR Renilla luciferase suppression, dose response, counter-screen for Shn3 inhibitor project, cell-based, Clone20-Shn3RL, cherry-picked (AID 624133). Type of data set: functional.
Data set [6] can be described thus: cytotoxicity in HEK-293T cells, dose response, cytotoxicity control for BCR NF-kB inhibitor project, luminescence, B-cell screen hits (AID 489021).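 Note: HEK-293T cells carrying an NF-kB luciferase reporter; cells exposed to compound for about 14 hours before viability readout.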 Format: functional, cell-based.
The nature of data set [7]: Shn3 3'UTR reporter inhibitors, dose response, cell-based, Clone20 osteoblasts, firefly luciferase, cherry-picked (AID 624132).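 Note: firefly luciferase luminescence from reporter carrying the Shn3 3'UTR in osteoblasts.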 Type of data set: functional.
Data set [8] addresses Galanin receptor type 3 (Homo sapiens, UniProt O60755). Briefly: Fluorescence-based cell-based primary high throughput dose response assay to identify antagonists of the Galanin Receptor 3 (GalR3). Format: functional.
Data set [9] addresses COUP transcription factor 2 (Homo sapiens, UniProt P24468). Briefly: Luminescence-based cell-based high throughput dose response assay to identify inhibitors of COUP-TFII (NR2F2). Format: functional.
Data set [10] concerns the target Kappa-type opioid receptor (Homo sapiens, UniProt P41145). Briefly: OPRK1 antagonists, late-stage follow-up, cell-based, fluorescence, dose response (AID 652032). Type of data set: functional.
Data set [11] in a line: A549 cell cytotoxicity, dose response, cytotoxicity control, plate reader, cherry-pick, antagonist series (AID 743412). Type of data set: functional, cell-based.
Data set [12] can be described thus: HepG2 cell cytotoxicity, dose response, cytotoxicity control, plate reader, cherry-pick, antagonist series (AID 743416). Format: functional, cell-based.
Data set [13] is described as follows: HEK293 cell cytotoxicity, dose response, cytotoxicity control, plate reader, cherry-picked samples (AID 743446). Format: functional, cell-based.
Data set [14] is described as follows: LGR2 antagonists, dose response, cell-based, HEK293, CRE-luciferase reporter, cherry pick (AID 743342). Type of data set: functional.
Data set [15] concerns the target Cytochrome P450 2D6 (Homo sapiens, UniProt P10635).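 Note: CYP2D6 member of a cytochrome P450 panel assay.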
In data set [16] the target is Cytochrome P450 2C9 (Homo sapiens, UniProt P11712).
Data set [17] in a line: cells.
Data set [18] concerns the target Protein-tyrosine kinase 2-beta (Homo sapiens, UniProt Q14289).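 Note: potency of inhibitors of PYK2 kinase phosphorylation of poly-GT substrate.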
Data set [19] deals with Major prion protein (Homo sapiens, UniProt P04156). Format: functional, cell-based.
For data set [20], the target named is Paired box protein Pax-8 (Homo sapiens, UniProt Q06710). Briefly: inhibitors of PAX8-driven TPO luciferase reporter, dose response, RMG-I cells, cherry-pick (AID 687027).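 Note: luciferase reporter driven by Pax8 target thyroperoxidase promoter measured by SteadyGlo luminescence.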 Format: functional, cell-based.
The nature of data set [21]: IOSE-T80 ovarian epithelial cell cytotoxicity, dose response, cytotoxicity control for PAX8 inhibitor project, plate reader, dry powder samples (AID 743045). Format: functional, cell-based.
The nature of data set [22]: cytotoxicity in OVCAR8 ovarian cancer cells, dose response, PAX8 project, cell-based, plate reader, dry powder samples (AID 743197). Type of data set: functional. Particulars: OVCAR-8.
Data set [23] relates to Vero. In words: Vero cell toxicity, dose response, cytotoxicity control, plate reader, cherry-pick samples (AID 687020). Type of data set: functional, cell-based. Particulars: Chlorocebus sabaeus.
Data set [24] in a line: NIH:OVCAR-3 ovarian cancer cell cytotoxicity, dose response, PAX8 inhibitor project, plate reader, dry powder samples (AID 743044). Type of data set: functional, cell-based.
Data set [25] in a line: inhibitors of non-replicating M. tuberculosis, dose response, luciferase, dry powder (AID 651619). Type of data set: functional. Particulars: Mycobacterium tuberculosis.
A short description of data set [26]: inhibitors of non-replicating M. tuberculosis, dose response, luciferase, dry powder (AID 651620). Type of data set: functional. To be noted: Mycobacterium tuberculosis.
Data set [27] can be described thus: IGROV1 ovarian cancer cell cytotoxicity, dose response, PAX8 inhibitor project, plate reader, dry powder samples (AID 743043). Format: functional, cell-based. To be noted: IGROV-1.
Data set [28] is described as follows: non-specific cell cytotoxicity, dose response, cytotoxicity control for PAX8 inhibitor project, plate reader, dry powder samples (AID 743021). Type of data set: functional, cell-based.
Data set [29] is described as follows: NIH/3T3 fibroblast cytotoxicity, dose response, cytotoxicity control, cell-based, plate reader, dry powder, set 2 (AID 652280). Format: functional. To be noted: NIH3T3.
A short description of data set [30]: T. cruzi growth inhibition in host cells, dose response, cell-based, plate reader, dry powder, set 2 (AID 652275). Type of data set: functional.
Data set [31] is described as follows: BHK-21 cell cytotoxicity, cytotoxicity control for flavivirus guanylyltransferase probe project, secondary screen (AID 624078). Format: functional.

Activity calls are given as the source filed them.

As usually defined, the AC50 is the concentration at which the activity in the assay is half-maximal. Usually EC50 stands for the concentration giving half of the maximal effect. By IC50 is commonly meant the concentration needed to halve the response being measured. Usually IC90 stands for the point of the concentration-response curve where the effect stands at 90%. The CC50 is the concentration at which the toxic effect on the cells reaches its halfway point.
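Throughout, for EC50: target is galanin receptor GalR3 read with a cAMP biosensor in HEK293 cells.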

Consider `Cc1cc(C)c(CN2CCN(C(=O)Cn3cnc4c(NCc5ccccc5)ncnc43)CC2)c(C)c1`, for which the AC50 is 1.59 µM (active) in data set [1]; 27.3 µM (active) in [2]; 0.773 µM (active) in data set [3]; 0.818 µM (active) in data set [5]; 0.417 µM (active) in [7]. Also, the EC50 in data set [4] was > 29.9 µM (inactive). The IC50 was > 80 µM (inactive) in [6], 0.363 µM (active) in data set [8] and 2.71 µM (active) in data set [9].
With `COC(=O)c1cc(Br)cnc1N1CCC(OC2CCCCC2O)CC1` (stereo not drawn), the IC50 in data set [10] is > 50 µM (inactive).
For `C[C@H]1CCCCO[C@@H](CN(C)C(=O)Nc2ccc(C(F)(F)F)cc2)[C@@H](C)CN([C@@H](C)CO)C(=O)c2cc(NC(=O)CCC(F)(F)F)ccc2O1`, the AC50 in data set [11] is 31 µM (active); in [12], > 52 µM (inactive); in [13], > 52 µM (inactive); in [14], 4.55 µM (active).
As for `CCc1nc(SCC(=O)NNC(=O)C2CCCCC2)c2ccccc2n1`, the AC50 result in data set [15] and in data set [16] was “inconclusive” in each case. Moreover, the IC50 in data set [17] is > 138 µM (inactive); in data set [18], > 69.5 µM (not active); in data set [19] it was 1.18 µM (active).
`C[C@@H]1CCCCO[C@H](CN(C)Cc2ccc(C(F)(F)F)cc2)[C@H](C)CN([C@@H](C)CO)C(=O)c2cc(NC(=O)c3ccccc3)ccc2O1`: the AC50 was 19.1 µM (active) in data set [20]; 42.4 µM (active) in data set [21]; 17.8 µM (active) in data set [22]; 28.7 µM (active) in data set [23]; 33.2 µM (active) in [24].
Regarding `O=S(=O)(Cc1ccccc1)c1nnc(-c2ccccc2)o1`, the IC90 in data set [25] and in [26] was 2 µM (active) in each case.
For `C[C@@H]1CCCCO[C@H](CN(C)Cc2ccc(Cl)c(Cl)c2)[C@@H](C)CN([C@@H](C)CO)C(=O)c2cc(NS(=O)(=O)c3ccccc3)ccc2O1`, the half-maximal activity concentration (AC50) was 44.6 µM (active) in [27], 5 µM (active) in [20], 2.38 µM (active) in [28] and 21.2 µM (active) in data set [24].
For the compound `O=C(C1CC1)N1CCCCN2[C@@H](CO)[C@H](c3ccc(-c4cccc(F)c4)cc3)[C@@H]2C1`, the figures for the concentration at half-maximal activity (AC50) in [29] and in [30] were 26.7 µM (active) and 0.312 µM (active), respectively.
`Cn1c(=O)c2[nH]c(-c3ccc(Cl)cc3)c(O)c2n(C)c1=O`: the CC50 in data set [31] was > 100 µM (active).

Source of the values: ChEMBL document CHEMBL1201862, “PubChem BioAssay data set” (2004).
